Experimental data as given in US20050192261A1, “Methods and reagents for the treatment of immunoinflammatory disorders” (priority 2003, published 2005).
Where a name gives a salt, the structure may show the parent alone. Read-outs that look alike come from different tables or passages of the source.

System: TNFα secretion in white blood cells from human buffy coat stimulated with phorbol 12-myristate 13-acetate and ionomycin
Assay: TNFα secretion assay
Details: for percent inhibition of TNFα secretion: Bromodiphenhydramine HCl μM: 0/0.21/0.43/0.85/1.7/3.4/6.8/14/27; for inhibition at 0.2 µM: read-out: percent inhibition of TNFα secretion, Loratadine 0.2 μM; for inhibition at 13 µM: read-out: percent inhibition of TNFα secretion, Loratadine 13 μM; for inhibition at 26 µM: read-out: percent inhibition of TNFα secretion, Loratadine 26 μM
[1] = Homo sapiens, Desipramine HCl: 0/0.25/0.5/1/2/4/8/16/32 μM
[2] = Homo sapiens, Fluoxetine HCl μM: 0/0.23/0.45/0.9/1.8/3.6/7.2/14/29
[3] = Homo sapiens, Paroxetine HCl: 0/0.21/0.42/0.83/1.7/3.3/6.7/13/27 μM

Protocol: Drugs were added to the indicated concentration. […] The plate was then washed again with 0.1% Tween 20/PBS. An HRP-luminescent substrate was added to each well, and the light intensity of each well was measured using a plate luminometer.

Structure (SMILES): CC(CN1c2ccccc2Sc2ccccc21)N(C)C (centres unmarked) [Promethazine HCl, promethazine]
- inhibition at 16 µM (Homo sapiens, read-out: percent inhibition (dose matrix), Table 99, Promethazine HCl 16 μM, Amoxapine 0-25 μM): 30.4%
- inhibition at 31 µM (Homo sapiens, read-out: percent inhibition (dose matrix), Table 99, Promethazine HCl 31 μM, Amoxapine 0-25 μM): 80.5%
- inhibition at 16 µM (Homo sapiens, read-out: percent inhibition (dose matrix), Table 100, Promethazine HCl 16 μM, Fluoxetine HCl 0-29 μM): 30.8%
- inhibition at 31 µM (Homo sapiens, read-out: percent inhibition (dose matrix), Table 100, Promethazine HCl 31 μM, Fluoxetine HCl 0-29 μM): 69.5%
- inhibition at 16 µM (Homo sapiens, read-out: percent inhibition (dose matrix), Table 101, Promethazine HCl 16 μM, NOrtriptyline HCl 0-33 μM per row (c1)): 31%
- inhibition at 31 µM (Homo sapiens, read-out: percent inhibition (dose matrix), Table 101, Promethazine HCl 31 μM, NOrtriptyline HCl 0-33 μM per row (c1)): 69.4%
- inhibition at 16 µM (Homo sapiens, read-out: percent inhibition (dose matrix), Table 102, Promethazine HCl 16 μM, Paroxetine HCl 0-27 μM per row (c1)): 36.7%
- inhibition at 31 µM (Homo sapiens, read-out: percent inhibition (dose matrix), Table 102, Promethazine HCl 31 μM, Paroxetine HCl 0-27 μM per row (c1)): 78.8%
- inhibition at 16 µM (Homo sapiens, read-out: percent inhibition (dose matrix), Table 105, Promethazine HCl 16 μM, Fluoxetine HCl 0-29 μM): 22%
- inhibition at 31 µM (Homo sapiens, read-out: percent inhibition (dose matrix), Table 105, Promethazine HCl 31 μM, Fluoxetine HCl 0-29 μM): 62.3%
- inhibition at 16 µM (Homo sapiens, read-out: percent inhibition of TNFα secretion, Promethazine HCl 16 μM, Amoxapine μM r5-r13: 0,0.2,0.4,0.8,1.6,3.2,6.4,13,25): 60.4%
- inhibition at 16 µM (Homo sapiens, read-out: percent inhibition of TNFα secretion, Promethazine HCl 16 μM, Desipramine HCl: 0/0.25/0.5/1/2/4/8/16/32 μM): 42.8%
- inhibition at 16 µM (Homo sapiens, read-out: percent inhibition of TNFα secretion, Promethazine HCl 16 μM, Fluoxetine HCl μM r5-r13: 0,0.23,0.45,0.9,1.8,3.6,7.2,14,29): 65.3%
- inhibition at 16 µM (Homo sapiens, read-out: percent inhibition of TNFα secretion, Promethazine HCl 16 μM, Paroxetine HCl μM by row r5-r13: 0/0.21/0.42/0.83/1.7/3.3/6.7/13/27): 57.1%
- inhibition at 16 µM (Homo sapiens, read-out: percent inhibition of TNFα secretion, Promethazine HCl 16 μM, Sertraline HCl by grid row r5-r13: 0/0.25/0.5/1/2/4/7.9/16/32 μM): 40%
- inhibition at 31 µM (Homo sapiens, read-out: percent inhibition of TNFα secretion, Promethazine HCl 31 μM, Amoxapine μM r5-r13: 0,0.2,0.4,0.8,1.6,3.2,6.4,13,25): 85.4%
- inhibition at 31 µM (Homo sapiens, read-out: percent inhibition of TNFα secretion, Promethazine HCl 31 μM, Desipramine HCl: 0/0.25/0.5/1/2/4/8/16/32 μM): 75.7%
- inhibition at 31 µM (Homo sapiens, read-out: percent inhibition of TNFα secretion, Promethazine HCl 31 μM, Fluoxetine HCl μM r5-r13: 0,0.23,0.45,0.9,1.8,3.6,7.2,14,29): 87%
- inhibition at 31 µM (Homo sapiens, read-out: percent inhibition of TNFα secretion, Promethazine HCl 31 μM, Paroxetine HCl μM by row r5-r13: 0/0.21/0.42/0.83/1.7/3.3/6.7/13/27): 84.2%
- inhibition at 31 µM (Homo sapiens, read-out: percent inhibition of TNFα secretion, Promethazine HCl 31 μM, Sertraline HCl by grid row r5-r13: 0/0.25/0.5/1/2/4/7.9/16/32 μM): 72.1%
- inhibition of TNFα secretion (prednisolone 1 μM, promethazine HCl r5-r13: 0,0.24,0.49,0.97,1.9,3.9,7.8,16,31 μM): 38

Structure (SMILES): CC(C)(C(=O)O)c1ccc(C(O)CCCN2CCC(C(O)(c3ccccc3)c3ccccc3)CC2)cc1 (centres unmarked) [Fexofenadine HCl]
- inhibition of TNFα secretion (prednisolone 0.5 μM, fexofenadine HCl r5-r13: 0,0.073,0.15,0.29,0.58,1.2,2.3,4.6,9.3 μM): 50

Structure (SMILES): CN(C)CCOC(c1ccccc1)c1ccc(Br)cc1 (centres unmarked) [Bromodiphenhydramine HCl, bromodiphenhydramine]
- inhibition at 14 µM (Homo sapiens, read-out: percent inhibition of TNFα secretion, Bromodiphenhydramine HCl 14 μM, Fluoxetine HCl μM: 0/0.23/0.45/0.9/1.8/3.6/7.2/14/29): 39%
- inhibition at 27 µM (Homo sapiens, read-out: percent inhibition of TNFα secretion, Bromodiphenhydramine HCl 27 μM, Fluoxetine HCl μM: 0/0.23/0.45/0.9/1.8/3.6/7.2/14/29): 65.2%
- percent inhibition of TNFα secretion (Nortryptyline HCl 0 μM (Bromodiphenhydramine HCl alone)): −15

Structure (SMILES): CNCCC=C1c2ccccc2CCc2ccccc21.Cl [Nortryptyline HCl]
- percent inhibition of TNFα secretion (Nortryptyline HCl 1 μM): 1.7
- percent inhibition of TNFα secretion (Nortryptyline HCl 17 μM): 80
- percent inhibition of TNFα secretion (Nortryptyline HCl 33 μM): 92

Structure (SMILES): COc1ccc(CN(CCN(C)C)c2ccccn2)cc1 [Pyrilamine Maleate]
- inhibition of TNFα secretion (prednisolone […], pyrilamine maleate r5-r13: 0,0.19,0.38,0.76,1.5,3,6.1,12,24 μM): 20

Structure (SMILES): CCOC(=O)N1CCC(=C2c3ccc(Cl)cc3CCc3cccnc32)CC1 [Loratadine, loratadine]
- inhibition at 0.2 µM [1]: -1.95%
- inhibition at 0.2 µM [2]: 3.68%
- inhibition at 0.2 µM [3]: -1.38%
- inhibition at 13 µM [1]: 31.7%
- inhibition at 13 µM [2]: 42.9%
- inhibition at 13 µM [3]: 38.3%
- inhibition at 26 µM [1]: 41.5%
- inhibition at 26 µM [2]: 56.6%
- inhibition at 26 µM [3]: 43.4%
